Values of other authors, collected in US20090270438A1, “Novel compositions and formulations” (priority 2006, published 2009).

Settings: Pharmaceutical Codex

COC12CCC3(CC1C(C)(O)C(C)(C)C)C1Cc4ccc(O)c5c4C3(CCN1CC1CC1)C2O5 (stereo not shown) [buprenorphine, Buprenorphine]
pKa: 8.5
